pIC50: −log10 of the molar value.

In one assay the test system is neutrophils. In words: Neutrophil migration inhibitory action, Boyden Chamber, FMLP (Test Example 3). It is filed as cell-based. The settings on record: 0.5 h, human neutrophils, FMLP 1 μM, 37° C., 30 minutes, read-out: IC50, compound concentration providing a migration inhibition ratio of 50%. The protocol: Neutrophils were isolated from 50 to 100 ml of peripheral blood collected from healthy human donors by the method described in Test Example 1 to obtain a cell suspension (8×10^6/ml). Subsequently, solutions of a test compound at various concentrations were introduced into wells of a 96-well plate in a volume of 125 μl per well, the cell suspension of an equivalent volume was added to it and the plate was preincubated at room temperature for 5 minutes. During the preincubation, FMLP (1 μM, Sigma) solution was added to the lower chamber to set Boyden Chamber, the preincubated cell suspension was added to the upper chamber in a volume of 200 μl per well, and the cells were allowed to migrate at 37° C. under 5% carbon dioxide for 30 minutes. The filter after the migration was collected, and the non-migrated cells adhered to the surface that faced the upper chamber were carefully wiped off. Then, the migrated cells on the back surface were stained with DifQuick dye solution (International Reagents), washed with water and dried, and then absorbance was measured at 595 nm. The inhibition ratio against migration (%) of a test compound was calculated by using the following equation: Migration inhibition ratio(%)=(1−Absorbance of the group with addition of test compound/Absorbance of the group without addition of test compound)×100
Further, the migration inhibitory ratio was calculated with changing the test compound concentration, and a compound concentration providing an inhibition ratio of 50% was obtained as IC50.

Assay [1] deals with phosphorylation of myosin regulatory light chain. Description: Inhibitory action on phosphorylation of myosin regulatory light chain (Test Example 1). In kind it is cell-based. The settings on record: Neutrophil, 5 min; human peripheral blood neutrophils, 25° C. for 5 minutes; read-out: IC50, compound concentration providing a phosphorylation inhibition ratio of 50% (myosin regulatory light chain). The protocol: A volume of 50 to 100 ml of peripheral blood collected from healthy volunteers was centrifuged by using Mono-Poly separator solution (Dainippon Pharmaceutical) to prepare a neutrophil containing fraction. The neutrophils were washed with PBS(−) and resuspended in Hanks' Balanced Salt Solution (HBSS+, Gibco) to prepare a cell suspension (8×10^6/ml). The cell suspension was diluted to 5×10^6/ml, introduced into Eppendorf tubes in a volume of 0.4 ml each, then 0.1 ml each of solutions of a test compound at various concentrations were added to the suspension and allowed to react at 25° C. for 5 minutes. After the reaction, 0.1 ml of trichloroacetic acid solution was added to each reaction mixture, the reaction mixture was gently shaken and centrifuged at 12,000 rpm (4° C., 5 minutes), and the supernatant was removed. Subsequently, 3 μl of 1 M Tris solution was added to the residue, the mixture was further mixed with 50 μl of extraction buffer (8 M urea, 0.02% 2-mercaptoethanol, 0.002% bromophenol blue) and left stand at room temperature for 1 hour. Then, the reaction mixture was loaded on a spin column (0.45 μm, Millipore) to remove the insoluble solids and a sample buffer for SDS polyacrylamide gel electrophoresis (25 mM, Tris-HCl pH 6.8, 2.5% 2-mercaptoethanol, 2% sodium dodecylsulfate, 5% sucrose, 0.002% bromophenol blue as final concentrations) was added, and 10 μl of each sample was subjected to electrophoresis.
The gel after the electrophoresis was blotted on a nitrocellulose membrane (BioRad), blocked with 5% skim milk, and reacted successively with antibodies pLC1 (Sakurada K. et al, Am. J. Physiol., 274, C1563-C1572 (1998)), which specifically recognize the phosphorylated myosin regulatory light chain, and donkey anti-mouse IgG (Chemicon) conjugated with horseradish peroxidase. The band of the phosphorylated myosin regulatory light chain was detected on a film by using ECL Plus Kit (Amersham Pharmacia Biotech). This band was subjected to quantification using a densitometer. By using this value, the inhibitory ratio (%) for phosphorylation of the myosin regulatory light chain was calculated by using the following equation. Phosphorylation inhibition ratio(%)=1−(Band intensity of phosphorylated myosin regulatory light chain with addition of the test compound/Band intensity of phosphorylated myosin regulatory light chain without addition of the test compound)×100
Further, the phosphorylation inhibition ratio was calculated with changing the concentrations of the test compound, and a compound concentration providing an inhibition ratio of 50% was obtained as IC50.

Assay [2] concerns rabbit normal intraocular pressure. Description: Intraocular pressure reducing action (Test Example 2). It is filed as in vivo, Japanese white rabbit. The settings on record: Oryctolagus cuniculus, topical; 3 mM aqueous solution, 50 μl to the left eye; measured after 2, 4 and 6 hours; read-out: intraocular pressure reducing degree (max ΔIOP / intraocular pressure value immediately before administration × 100). The protocol: A Japanese white rabbit having a body weight of about 2 kg was placed in a positioner and naturalized for one week before the experiment. An opthalmologic local anesthesant (Benoxil) was administered to both eyes, and then intraocular pressure was measured by using a tonometer (Classic 30, Solan). A 3 mM aqueous solution of a test compound was administered in a volume of 50 μl to the left eye, and the right eye was not treated (control eye). The intraocular pressure values were measured for the left and right eyes immediately before, and 2, 4 and 6 hours after the administration of the aqueous solution of the test compound, and the difference of the measured values for the left and right eyes was considered an intraocular pressure reduction value of the test medicament at each measurement time. The largest difference of the values for the left and right eyes among the measured values at the measurement times (after 2, 4 and 6 hours) was considered the maximum intraocular pressure reduction value (max ΔIOP) of each test medicament. The intraocular pressure reducing degree representing the intraocular pressure reducing action of each test medicament was calculated according to the following formula. Since rabbits show significant daily variation of intraocular pressure, daily variation is added when change of intraocular pressure is measured over time, and the intraocular pressure reducing action may be overestimated. Therefore, we used this calculation method of intraocular pressure reduction value in order to minimize the influence of the variation. Intraocular pressure reducing degree (%)=(max ΔIOP/Intraocular pressure value immediately before administration)×100

For the molecule `Cc1cncc2cccc(S(=O)(=O)N3CCC[C@H](N)C3)c12` [Example 22-1, (S)-3-Amino-1-(4-methyl-5-isoquinolinesulfonyl)piperidine], the results for the pIC50 (in the assay on neutrophils; in assay [1]) were 4.40 to 5.00 and greater than 5.00, respectively. Further, the inhibition in vivo at 3000 µM in assay [2] is 10 to 20%. As to `N[C@@H]1CCN(S(=O)(=O)c2cccc3cncc(Cl)c23)C1` [Example 19-2, (R)-3-Amino-1-(4-chloro-5-isoquinolinesulfonyl)pyrrolidine], the pIC50 in the assay on neutrophils was 4.40 to 5.00; in assay [1] it was greater than 5.00. For the same molecule, in assay [2], the inhibition in vivo at 3000 µM is no less than 20%.

For the molecule `N[C@@H]1CCCN(S(=O)(=O)c2cccc3cncc(Cl)c23)C1` [Example 21-2, (R)-3-Amino-1-(4-chloro-5-isoquinolinesulfonyl)piperidine], the pIC50 in assay [1] was 4.40 to 5.00. Besides, in assay [2], the inhibition in vivo at 3000 µM lay within 10 to 20%. As to `N[C@H]1CCN(S(=O)(=O)c2cccc3cncc(Br)c23)C1` [Example 1-1, (S)-3-Amino-1-(4-bromo-5-isoquinolinesulfonyl)pyrrolidine], the figures for the pIC50 (in the assay on neutrophils; in assay [1]) were 4.40 to 5.00 and greater than 5.00, respectively. Further, the inhibition in vivo at 3000 µM in assay [2] was no less than 20%.

`COc1cncc2cccc(S(=O)(=O)N3CC[C@H](N)C3)c12` [Example 15-1, (S)-3-Amino-1-(4-methoxy-5-isoquinolinesulfonyl)pyrrolidine]: the pIC50 in assay [1] was 4.40 to 5.00. In assay [2], the inhibition in vivo at 3000 µM was 5 to 10%.

As to `CN[C@H]1CCN(S(=O)(=O)c2cccc3c(O)ncc(Br)c23)C1` [Example 35-1, (S)-1-(1-Hydroxy-4-bromo-5-isoquinolinesulfonyl)-3-(methylamino)pyrrolidine], the inhibition in vivo at 3000 µM in assay [2] was 5 to 10%. On the same count and under the same terms, next, `N[C@H]1CCN(S(=O)(=O)c2cccc3c(O)ncc(F)c23)C1` [Example 29-1, (S)-3-Amino-1-(1-hydroxy-4-fluoro-5-isoquinolinesulfonyl)pyrrolidine]: 10 to 20%. For `CN[C@@H]1CCN(S(=O)(=O)c2cccc3cncc(Cl)c23)C1` [Example 32-2, (R)-1-(4-Chloro-5-isoquinolinesulfonyl)-3-(methylamino)pyrrolidine], the pIC50 in the assay on neutrophils is 4.40 to 5.00; in assay [1], greater than 5.00. In addition, the inhibition in vivo at 3000 µM in assay [2] lay in the range of 10 to 20%.

Consider `Cc1cncc2cccc(S(=O)(=O)N3CC[C@@H](N)C3)c12` [Example 8-2, (R)-3-Amino-1-(4-methyl-5-isoquinolinesulfonyl)pyrrolidine], for which the pIC50 (in the assay with neutrophils; in assay [1]) was greater than 5.00 each time. The inhibition in vivo at 3000 µM in assay [2] is no less than 20%. Turning to `N#Cc1cncc2cccc(S(=O)(=O)N3CC[C@H](N)C3)c12` [Example 13-1, (S)-3-Amino-1-(4-cyano-5-isoquinolinesulfonyl)pyrrolidine], the inhibition in vivo at 3000 µM in assay [2] lay in the range of 5 to 10%. As for `Cc1cncc2cccc(S(=O)(=O)N3CCC[C@@H](N)C3)c12` [Example 22-2, (R)-3-Amino-1-(4-methyl-5-isoquinolinesulfonyl)piperidine], the pIC50 in the assay with neutrophils is 4.40 to 5.00; in assay [1] it was greater than 5.00. For the same molecule, the inhibition in vivo at 3000 µM in assay [2] fell in the range of 10 to 20%. For `CN[C@H]1CCN(S(=O)(=O)c2cccc3c(N)ncc(Cl)c23)C1` [Example 40-1, (S)-1-(1-Amino-4-chloro-5-isoquinolinesulfonyl)-3-(methylamino)pyrrolidine], the inhibition in vivo at 3000 µM in assay [2] was in the range of 5 to 10%. `CCc1cncc2cccc(S(=O)(=O)N3CC[C@H](N)C3)c12` [Example 23-1, (S)-3-Amino-1-(4-ethyl-5-isoquinolinesulfonyl)pyrrolidine]: the pIC50 in the assay on neutrophils was 4.40 to 5.00; in assay [1], greater than 5.00. Moreover, the inhibition in vivo at 3000 µM in assay [2] is 10 to 20%. On the same counts, the results for `Cc1cnc(O)c2cccc(S(=O)(=O)N3CC[C@H](N)C3)c12` [Example 25-1, (S)-3-Amino-1-(1-hydroxy-4-methyl-5-isoquinolinesulfonyl)pyrrolidine] are greater than 5.00, greater than 5.00 and 10 to 20%. On the same counts, the results for `N[C@H]1CCN(S(=O)(=O)c2cccc3cncc(C4CC4)c23)C1` [Example 11-1, (S)-3-Amino-1-(4-cyclopropyl-5-isoquinolinesulfonyl)pyrrolidine] are 4.40 to 5.00, greater than 5.00 and 5 to 10%. For `N[C@H]1CCCN(S(=O)(=O)c2cccc3cncc(Cl)c23)C1` [Example 21-1, (S)-3-Amino-1-(4-chloro-5-isoquinolinesulfonyl)piperidine], the pIC50 in assay [1] was 4.40 to 5.00. In addition, the inhibition in vivo at 3000 µM in assay [2] is no less than 20%.

In the case of `N[C@H]1CCN(S(=O)(=O)c2cccc3cncc(F)c23)C1` [Example 18-1, (S)-3-Amino-1-(4-fluoro-5-isoquinolinesulfonyl)pyrrolidine], the pIC50 in assay [1] is 4.40 to 5.00. In assay [2], the inhibition in vivo at 3000 µM was no less than 20%. As for `CN[C@H]1CCN(S(=O)(=O)c2cccc3c(N)ncc(Br)c23)C1` [Example 42-1, (S)-1-(1-Amino-4-bromo-5-isoquinolinesulfonyl)-3-(methylamino)pyrrolidine], the inhibition in vivo at 3000 µM in assay [2] was 5 to 10%.

Turning to `N[C@H]1CCN(S(=O)(=O)c2cccc3cncc(-c4cnoc4)c23)C1` [Example 24-1, (S)-3-Amino-1-[4-(4-isoxazolyl)-5-isoquinolinesulfonyl]pyrrolidine], the inhibition in vivo at 3000 µM in assay [2] lay within 5 to 10%. On to `Nc1cncc2cccc(S(=O)(=O)N3CC[C@H](N)C3)c12` [Example 12-1, (S)-3-Amino-1-(4-amino-5-isoquinolinesulfonyl)pyrrolidine], for which the pIC50 in assay [1] is 4.40 to 5.00. In addition, the inhibition in vivo at 3000 µM in assay [2] was in the range of 10 to 20%. As to `CN[C@@H]1CCN(S(=O)(=O)c2cccc3c(O)ncc(Cl)c23)C1` [Example 36-2, (R)-1-(1-Hydroxy-4-chloro-5-isoquinolinesulfonyl)-3-(methylamino)pyrrolidine], the inhibition in vivo at 3000 µM in assay [2] lay in the range of 10 to 20%. On the same count and under the same terms, next, `N[C@H]1CCN(S(=O)(=O)c2cccc3c(O)ncc(Cl)c23)C1` [Example 30-1, (S)-3-Amino-1-(1-hydroxy-4-chloro-5-isoquinolinesulfonyl)pyrrolidine]: no less than 20%. The same measure, in the same setting: next, `Nc1ncc(Cl)c2c(S(=O)(=O)N3CC[C@H](N)C3)cccc12` [Example 39-1, (S)-3-Amino-1-(1-amino-4-chloro-5-isoquinolinesulfonyl)pyrrolidine]: 10 to 20%; `O=S(=O)(c1cccc2c(O)ncc(Br)c12)N1CC[C@H](NCc2ccco2)C1` [Example 38-1, (S)-1-(1-Hydroxy-4-bromo-5-isoquinolinesulfonyl)-3-(2-furylmethylamino)pyrrolidine]: 5 to 10%.
